Assay results published in US9150528B2, “Compound having detrusor muscle-contracting activity and urethral sphincter muscle-relaxing activity” (ONO PHARMACEUTICAL CO., LTD., priority 2009, dated 2015).

Legend:
male rats = assay: Digestive symptoms after repeated oral administration; assay type: in vivo, rat; details: 0.1 mg/kg oral, repeated for 4 days
Protocol: Using male rats, aged 6 weeks, general states of the rats were observed after repeating oral administration of the test compound at a dose of 0.1 mg/kg for 4 days. To a control, injectable water which is a medium was administered.

cynomolgus monkeys = assay: Effects on cardiac function in anesthetized cynomolgus monkeys; assay type: in vivo, cynomolgus monkey; details: continuous intravenous 30 min
Protocol: Cynomolgus monkeys were anesthetized with pentobarbital (at an initial dose of 20-30 mg/kg by intravenous administration; at a dose of 4-5 mg/kg/hr by intravenous continuous administration). A tracheal tube was inserted and experiments were carried out under artificial respiration (fresh air+pure oxygen, ventilatory volume: 10-15 mL/kg, ventilation frequency: 10-15 times/min). In the right lying position, the left thorax was opened between the fourth and fifth intercostal spaces. The […] (the origin of the left anterior descending artery or circumflex branch) and the origin of the ascending main artery were peeled off and transducers for blood flow measurement were located there. The blood flow rates were measured using an electronic blood flowmeter or an ultrasonic blood flowmeter. The blood pressures were measured using a pressure transducer in a state where a catheter was inserted into the right femoral artery. The left ventricular internal pressure was measured in a state where a catheter was inserted from the left carotid artery into the left ventricle. The electrocardiogram was measured using needle electrodes installed in the right armpit and the left thorax. After catheters for administration were inserted into the right and left cephalic veins and femoral veins, the test compound, pentobarbital (under anesthesia) or an aqueous solution (SOLITA T3 containing 1.2% NaHCO3) were administered therethrough. The test compound was continuously administered intravenously 30 min using a continuous infusion system. The blood pressure, left ventricular internal pressure, blood flow rate through the coronary artery and electrocardiogram data were simultaneously inputted to a PowerLab system (LabChart6, AD instruments) to measure/calculate average blood pressure, heart rate, average blood flow rate through the coronary artery, beat volume, stroke volume (beat volume/heart rate), maximum first deviation of the left ventricular internal pressure, total peripheral blood vessel resistance (average blood pressure/beat volume), cardiac performance (average blood pressure x beat volume) and double product (systolic arterial pressure x heart rate), which is indicative of myocardial oxygen consumption.
The averages of all evaluation parameters for 1 min were obtained before administration, immediately after administration, and 10 min, 20 min and 30 min after administration, and changes of the averages relative to the value measured before administration which is defined as 100% were calculated.

[1] = tested on: urinary excretion dysfunction models; assay: Urinary excretion dysfunction models, maximal urinary flow rate; assay type: in vivo; details: 60 ng/kg/h continuous intravenous, cynomolgus monkey urinary excretion dysfunction model
Description: Urinary excretion dysfunction models were constructed in accordance with the following procedure. After anesthesia of cynomolgus monkeys, the region from the suprapubic area to the abdominal area was shaved, followed by fixing in a dorsal position. The shaved region was disinfected and the four legs were fixed. Using an electrosurgical knife, the skin region from the suprapubic area to the umbilical area and the peritoneal membrane were sequentially incised, followed by damage to the pelvic nerve and removal of the uterus. After the surgical operation, viccillin-containing physiological saline was added dropwise to the incised area. The peritoneal membrane and skin of the incised area were sutured with silk threads and disinfected. Viccillin was administered for 7 consecutive days after surgery. Meloxicam was administered once daily for 7 consecutive days to manage pain in the perioperative period.
The cynomolgus monkeys were seated on monkey chairs, followed by retention of the hands and legs with strings. Injectable water was administered orally, and physiological saline and the test compound (60 ng/kg/h) were continuously administered intravenously to allow urination freely. The maximal urinary flow rate was measured using a urine weighing sensor.

[2] = Systemic clearance after intravenous administration; assay type: in vivo; details: plasma, cynomolgus monkey, 0.001 mg/mL/kg
Protocol: Equimolar sodium hydroxide and injectable distilled water were added to each of the test compounds to prepare a 1 mg/mL aqueous solution. The aqueous solution was diluted with physiological saline until the concentration reached 0.001 mg/mL and was rapidly administered at a dose of 0.001 mg/mL/kg to cynomolgus monkey through the cephalic vein. Via heparinized syringes, 2 min, 5 min, 15 min, 30 min, 1 hr, 2 hr, 4 hr, 6 hr, 8 hr and 24 hr after administration, blood was drawn from the cephalic vein (non-administered sites). After centrifugation, blood plasma was sampled and stored at −80° C. before pretreatment. The blood plasma was pretreated by mixing with acetonitrile and centrifuging to remove proteins followed by measurement by LC/MS/MS. Changes of concentration in blood plasma was analyzed using WinNonlin4.0.1 to evaluate the systemic clearance of the test compound.

urethral sphincter = assay: Relaxation of isolated rat urethra specimens (Magnus system), phenylephrine-induced contraction; assay type: cell-based; details: for Contractility of the urethral sphincter according to the compound concentration treated: rat urethra specimen
Protocol: Rats were anesthetized with pentobarbital, followed by abdominal incision to remove the bladders and the urethras. The bladder bodies were cut in the longitudinal direction to prepare strip specimens with a size of about 10×3 mm. Additionally, each of the urethras was also cut in the longitudinal direction to prepare specimens with a size of about 10×3 mm. The prepared specimens were suspended in Krebs buffer (37° C., 5 mL), which was aerated with a mixed gas of 95% O2 and 5% CO2. The tension values of the specimens were measured using a Magnus system equipped with an isometric transducer and an amplifier, and the measured values were recorded on a computer via a data collection system.
The specimens were suspended with a load of about 0.5 g. More than 1 hr later, potassium chloride (100 mmol/L) was added to the suspension and the maximal contraction response was observed. After washing with Krebs buffer, the specimens were suspended with a load of about 0.5 g for stabilization. Thereafter, a phenylephrine (100 μmol/L) was added to the suspension to induce the contraction of the specimens. After stabilization of the contraction-inducing response, the test compound was added in a cumulative manner and the response was observed before and after the treatment of the drug.

digestive symptoms such as soft feces (male rats): No digestive symptoms
cardiac performance (cynomolgus monkeys; 30 ng/kg/min): did not affect
double product (cynomolgus monkeys; 30 ng/kg/min): did not affect
cardiac performance (cynomolgus monkeys; 100 ng/kg/min): did not affect
double product (cynomolgus monkeys; 100 ng/kg/min): did not affect
other cardiac function parameters, including the blood flow rate through the coronary artery (cynomolgus monkeys): did not affect
clearance [2]: 3.6 mL/min/kg
Structure (SMILES): C[C@@](O)(C/C=C/[C@H]1CCC(=O)[C@@H]1CCSc1nc(C(=O)O)cs1)CCC(F)=C(F)F [Compound 17, 2-[(2-{(1R,5R)-2-oxo-5-[(1E,4S)-7,8,8-trifluoro-4-hydroxy-4-methyl-1,7-octadien-1-yl]cyclopentyl}ethyl)thio]-1,3-thiazole-4-carboxylic acid]
improvement in maximal urinary flow rate over the vehicle group [1]: 61%
Contractility of the urethral sphincter according to the compound concentration treated (urethral sphincter; 0 nmol/L): 5 % of phenylephrine
Contractility of the urethral sphincter according to the compound concentration treated (urethral sphincter; 1 nmol/L): −2 % of phenylephrine
Contractility of the urethral sphincter according to the compound concentration treated (urethral sphincter; 10 nmol/L): −9 % of phenylephrine
Contractility of the urethral sphincter according to the compound concentration treated (urethral sphincter; 100 nmol/L): −36 % of phenylephrine
Contractility of the urethral sphincter according to the compound concentration treated (urethral sphincter; 1 μmol/L): −83 % of phenylephrine
Contractility of the urethral sphincter according to the compound concentration treated (urethral sphincter; 10 μmol/L): −89 % of phenylephrine
effect on the urethral sphincter (urethral sphincter; summary in words of Table 2): relaxed the urethral sphincter
